Results published in US8748411B2, “Antineoplastic compounds and pharmaceutical compositions thereof” (Centro de Ingenieria Genetica y Biotechnologia, priority 2005, dated 2014).
Like-named read-outs stand apart in the source and are kept apart here. Where a SMILES comes first, the peptide text is derived from it.

Legend:
H-125 cells = experiment: Cytotoxic effect on cultured human tumour cells (MTS, 72 h); type: cell-based; conditions: read-out: Inhibitory concentration 50 (IC50)
Description: H-125 cells from a human Non Small Cells Lung Carcinoma were soiled in 96 well plates (Costar) to a 2×10^4 cell/ml density in Dulbecco (DMEM) media (Gibco) and supplemented with Foetal Calf Serum (Gibco). 24 hours later the chemical compounds described herein were added to the cultured media in a range between 0.5 and 100 nM, incubating the mixture for 72 h at 37° C. in 5% CO2, at the end 20 μl of a 1.90 mg/ml MTS solution was added. […] The results are evaluated as growth percentage to controls without any compound, and the IC50 values were estimated using each dosage-effect curve.

[1] = target: oncoprotein E7 from Human Papilloma Virus type 16 as GST fusion protein (E7-GST), phosphorylated by CK2 enzyme (Human papillomavirus type 16, UniProt P03129); type: biochemical; conditions: read-out: Inhibitory concentration 50 (IC50)
[2] = system: CK2 optimized consensus substrate sequence RRREEETEEE; experiment: In vitro CK2 phosphorylation of the optimized consensus substrate peptide […], filter radioactivity; type: biochemical; conditions: read-out: Inhibitory concentration 50 (IC50)
Description: The assay consists in performing an in vitro phosphorylation reaction, using as the substrate the sequence […] (SEQ. ID NO. 1) widely accepted as an optimized consensus phosphorylation domain for the CK2 substrates.
Before the enzymatic reaction the substrate peptide was preincubated one hour at 37° C., with different concentrations of the chemical compounds. The reaction is carried out in a mixture consisting of 50 μl Tris:HCL 25 mM pH 7.5 buffer, 1 μCi of ^32P-γATP, 100 μM ATP, 40 μl E7-GST containing resin, 0.2 M NaCl, 10 mM MgCl and 1 unit of the CK2 enzyme (Promega), allowing it to proceed for 10 minutes at 37° C. After the reaction 5 μl of the reaction mixture were applied to a Whatmann PE-81 paper filter and washed four times with 10 mM H3PO4, finally the paper associated radioactivity was measured and the cpm value for each sample was directly correlated with the CK2 enzymatic activity.
The IC50 values were estimated using each dosage-effect curve.

[3] = system: H-125 cells tumour implant; set-up: species or system BalbC nude mice; conditions: mouse, in vivo
Jurkat cells = conditions: cited from earlier work
[4] = NCI-H125, H-125 cells, 72 h, MTS, absorbance 492 nm
[5] = substrate peptide preincubated 1 h at 37° C., reaction 10 minutes at 37° C., 100 μM ATP

oncoprotein E7 from Human Papilloma Virus type 16 as GST fusion protein (E7-GST), phosphorylated by CK2 enzyme, sequence (P03129 whole entry, looked up, the tested form may be a part): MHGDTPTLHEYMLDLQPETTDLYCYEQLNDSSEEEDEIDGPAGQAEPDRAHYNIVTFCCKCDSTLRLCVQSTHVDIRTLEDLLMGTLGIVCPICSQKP

Row | Structure (SMILES) | IC50 (H-125 cells; NCI-H125, 72 h) | IC50 [1] | IC50 [2] | IC50 (H-125 cells; [4]) | IC50 [2, 5] | antitumoral response [3] | apoptosis and caspase dependent degradation induction (Jurkat cells)
1 | CC1=C/C(=N\NC(N)=O)CC(C)(C)C1 [C30401] | 103 ± 21 nM | 26 ± 11 nM | 62 ± 11 nM |  |  |  | 
2 | CC(C)NC(=S)Nc1c(N)nc(O)nc1O [C30402] |  | 30 ± 5 nM |  | 98 ± 7 nM | 74 ± 7 nM |  | 
3 | CCCCNC(=O)NCc1ccco1 [C30403] | 128 ± 9 nM | 34 ± 9 nM | 58 ± 9 nM |  |  |  | 
4 | O=C(O)CCNC(=O)NCCC(=O)O [C30404] | 115 ± 18 nM | 20 ± 8 nM | 61 ± 8 nM |  |  |  | 
5 | N#CCNC(=O)NCCCl [C30405] | 104 ± 12 nM | 27 ± 10 nM | 57 ± 10 nM |  |  |  | 
6 | C/C(Cc1c[nH]c2ccccc12)=N\NC(N)=S [C30406] | 97 ± 17 nM | 32 ± 7 nM | 60 ± 7 nM |  |  |  | 
7 | C/C=C/CC/C(=N\NC(N)=O)c1ccccc1 [C30408] | 119 ± 8 nM | 29 ± 2 nM | 79 ± 5 nM |  |  |  | 
8 | O=C(NCO)NC1NC(=O)NC1=O (stereo not drawn) [C30409] | 104 ± 6 nM | 31 ± 6 nM | 55 ± 6 nM |  |  |  | 
9 | Clc1cc(Cl)cc(Nc2nc(C(Cl)(Cl)Cl)nc(C(Cl)(Cl)Cl)n2)c1 [C30410] | 114 ± 7 nM | 40 ± 9 nM | 54 ± 7 nM |  |  |  | 
10 | CC(C)(C)NC(=O)NCCCl [C30411] | 126 ± 15 nM | 27 ± 10 nM | 66 ± 12 nM |  |  |  | 
11 | CC(C)(NC(=O)NCCCl)c1ccccc1 [C30412] | 91 ± 15 nM | 30 ± 3 nM | 71 ± 5 nM |  |  |  | 
12 | CC(C)(CS(C)(=O)=O)NC(=O)NCCCl [C30413] | 130 ± 11 nM | 24 ± 9 nM | 64 ± 11 nM |  |  |  | 
13 | N=C(N)C(NC=O)C(=O)NCc1ccccc1 (stereo not drawn) [C30414] | 118 ± 9 nM | 23 ± 9 nM | 68 ± 9 nM |  |  |  | 
14 | C/C(COc1ccccc1)=N/NC(N)=S [C30415] | 112 ± 10 nM | 33 ± 8 nM | 72 ± 10 nM |  |  |  | 
15 | NCC(=O)NCC(=O)NCC(=O)NCC(=O)O [C31416] (H-GGGG-OH) |  | 39 ± 6 nM |  | 109 ± 6 nM | 69 ± 6 nM |  | 
16 | CN(CC(=O)O)C(=O)CNC(=O)OCc1ccccc1 [C31417] (HELM PEPTIDE1{[O=C(OCc1ccccc1)[*:2]].G.[Sar]}$$$$V2.0) | 118 ± 21 nM | 28 ± 11 nM | 78 ± 11 nM |  |  |  | 
17 | CC(Br)C(=O)NCC(=O)NCC(=O)O (stereo not drawn) [C31418] | 123 ± 15 nM | 32 ± 5 nM | 72 ± 5 nM |  |  |  | 
18 | NC(=S)NN=CCn1ccc(=O)n(CC=NNC(N)=S)c1=O [C31419] | 132 ± 18 nM | 30 ± 4 nM | 60 ± 8 nM |  |  |  | 
19 | NCCC(=O)NCC(=O)NCC(=O)O [C31420] (HELM PEPTIDE1{[bAla].G.G}$$$$V2.0) | 125 ± 10 nM | 25 ± 7 nM | 55 ± 11 nM |  |  |  | 
20 | NNC(=O)CNc1ccc(F)c(C(F)(F)F)c1 [C31421] | 120 ± 18 nM | 30 ± 8 nM | 50 ± 8 nM |  |  |  | 

Row | Structure (SMILES) | IC50 (H-125 cells; NCI-H125, 72 h) | IC50 [1] | IC50 [2] | IC50 (H-125 cells; [4]) | IC50 [2, 5] | antitumoral response [3] | apoptosis and caspase dependent degradation induction (Jurkat cells)
21 | NNC(=O)CNc1cccc(I)c1 [C31422] | 114 ± 5 nM | 24 ± 5 nM | 74 ± 5 nM |  |  |  | 
22 | CC(C(=O)NCC(O)CO)n1ccnc1[N+](=O)[O-] (stereo not drawn) [C31423] | 106 ± 9 nM | 26 ± 8 nM | 76 ± 4 nM |  |  |  | 
23 | CCCC(NC(=O)CNC(=O)CN)C(=O)O (stereo not drawn) [C31424] (HELM PEPTIDE1{G.G.[CCCC(N[*:1])C(=O)O]}$$$$V2.0) | 162 ± 11 nM | 32 ± 13 nM | 62 ± 1 nM |  |  |  | 
24 | O=C(O)CNC(=S)C(=S)NCC(=O)O [C32425] | 115 ± 12 nM | 35 ± 3 nM | 65 ± 13 nM |  |  | significant antitumoral response | 
25 | NCCNCCNCCNCCN [C33426] | 109 ± 19 nM | 29 ± 8 nM | 79 ± 9 nM |  |  | significant antitumoral response | 
26 | OCCNCCCNc1ccnc2cc(Cl)ccc12 [C34428] | 165 ± 12 nM | 25 ± 7 nM | 65 ± 10 nM |  |  |  | 
27 | O=S(=O)(O)Nc1cnc(O)nc1O [C34429] | 131 ± 4 nM | 21 ± 12 nM | 61 ± 4 nM |  |  |  | 
28 | O=C1NC(=O)C(CS(=O)(=O)Nc2cccc(C(F)(F)F)c2)N1 (stereo not drawn) [C34430] | 140 ± 14 nM | 30 ± 4 nM | 70 ± 4 nM |  |  |  | 
29 | O=C(NNCCO)c1ccncc1 [C34431] | 155 ± 23 nM | 32 ± 6 nM | 55 ± 3 nM |  |  |  | 
30 | O=C(O)c1cc(O)nc(SCc2ccc(Cl)cc2Cl)n1 [C34432] | 127 ± 7 nM | 29 ± 7 nM | 67 ± 7 nM |  |  |  | 
31 | NCCC(=O)NCc1ccccc1 [C34433] | 116 ± 18 nM | 26 ± 10 nM | 76 ± 8 nM |  |  |  | 
32 | NNC(=O)CC(O)C(=O)NN (stereo not drawn) [C34434] | 108 ± 21 nM | 28 ± 5 nM | 78 ± 1 nM |  |  |  | 
33 | NC(CC(=O)NC(=O)OCc1ccccc1)C(=O)O (stereo not drawn) [C34435] | 124 ± 16 nM | 34 ± 3 nM | 64 ± 6 nM |  |  |  | 
34 | N#CC(Nc1ccccc1C(N)=O)c1ccccc1 (stereo not drawn) [C34436] | 116 ± 22 nM | 30 ± 2 nM | 66 ± 2 nM |  |  |  | 
35 | Cn1c(CCNC(=N)CSS(=O)(=O)O)nc2ccccc21 [C34437] | 131 ± 9 nM | 27 ± 4 nM | 71 ± 9 nM |  |  |  | 
36 | CC(O)CNc1nc(N)nc(O)c1[N+](=O)[O-] (stereo not drawn) [C34438] | 111 ± 17 nM | 31 ± 1 nM | 81 ± 7 nM |  |  |  | 
37 | CSc1nc(N)nc2c1ncn2C1CC(CO)C(O)C1O (stereo not drawn) [C34439] | 123 ± 25 nM | 33 ± 5 nM | 63 ± 12 nM |  |  |  | 
38 | CCOC(=O)c1cc[nH]c1CC(=O)NN [C34440] | 136 ± 32 nM | 26 ± 4 nM | 56 ± 4 nM |  |  |  | 
39 | Brc1c(Br)c(Br)c2[nH]nnc2c1Br [TBB, 4,5,6,7-tetrabromotriazole] |  |  |  |  |  |  | potent apoptosis and caspase dependent degradation inducer
